Test results published in ChEMBL document CHEMBL2150872, “A transcription factor hijacking to regulate RARα by using a chimeric molecule of retinoic acid and a DNA alkylator” (Bioorg Med Chem Lett, 2011).
The source made the active and inactive calls. No cut-off for these calls is given here.

How the values were obtained:
[1] = biological target: T1, Retinoic acid receptor alpha (Homo sapiens) (UniProt P10276); assay: Displacement of [3H]ATRA from RARalpha overexpressed in COS cell extract after 12 hrs by liquid scintillation counting; type: cell-free
T1 sequence (whole entry): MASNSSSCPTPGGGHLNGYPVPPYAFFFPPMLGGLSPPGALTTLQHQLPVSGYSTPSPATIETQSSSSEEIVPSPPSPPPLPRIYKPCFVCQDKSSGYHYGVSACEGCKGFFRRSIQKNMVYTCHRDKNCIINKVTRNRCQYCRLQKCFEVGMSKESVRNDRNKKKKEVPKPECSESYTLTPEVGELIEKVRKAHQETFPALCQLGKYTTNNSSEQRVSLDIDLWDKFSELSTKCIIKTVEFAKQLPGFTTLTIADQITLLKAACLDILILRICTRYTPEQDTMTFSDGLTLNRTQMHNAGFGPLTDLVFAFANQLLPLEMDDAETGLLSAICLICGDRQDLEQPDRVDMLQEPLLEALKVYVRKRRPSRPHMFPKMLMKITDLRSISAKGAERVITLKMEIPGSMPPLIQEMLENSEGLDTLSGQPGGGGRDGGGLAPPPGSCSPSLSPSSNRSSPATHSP

[2] = Induction of RARalpha recruitment to [gamma-32P]-5'-end labeled pUC18 DNA fragment at 10 mM after 30 mins by EMSA
Nucleic Acid [3] = assay: Binding affinity to [gamma-32P]-5'-end labeled pUC18 DNA fragment assessed as alkylation at N7 positions of guanine base by strand-breakage assay; type: nucleic-acid assay
Nucleic Acid [4] = assay: Binding affinity to [gamma-32P]-5'-end labeled pUC18 DNA fragment by autoradiography; type: nucleic-acid assay
[5] = biological target: T1, Retinoic acid receptor alpha (Homo sapiens); assay: Inhibition of transactivation of RARalpha overexpressed in COS cells after 24 hrs by luciferase reporter gene assay in presence of ATRA; type: cell-based
[6] = biological target: T1, Retinoic acid receptor alpha (Homo sapiens); assay: Displacement of [3H]ATRA from RARalpha overexpressed in COS cell extract at 10 nM after 12 hrs by liquid scintillation counting; type: cell-free
[7] = Induction of RARalpha recruitment to [gamma-32P]-5'-end labeled pUC18 DNA fragment at 1 mM after 30 mins by EMSA

Compound | Activity [1] | Activity [2] | Activity (Nucleic Acid [3]) | Activity (Nucleic Acid [4]) | inhibition [5] | Activity [6] | Activity [7]
CC1=C(/C=C/C(C)=C/C=C/C(C)=C/C(=O)NCCCc2ccc(N(CCCl)CCCl)cc2)C(C)(C)CCC1 | Dose-dependent effect | Active | Active | Active | Dose-dependent effect | Active | 
O=C(O)CCCc1ccc(N(CCCl)CCCl)cc1 |  |  | Active |  |  |  | inactive
